Results taken from paper PMC6581955, “Rosmarinic acid suppresses Alzheimer’s disease development by reducing amyloid β aggregation by increasing monoamine secretion” (Scientific Reports, 2019).

Key:
[1] = tested on: Aβ; set-up: method as in PMID 14994335; conditions: screen of five polyphenols; cited from earlier work
[2] = cited from earlier work; for intestinal permeability: orally ingested polyphenols
[3] = tested on: Aβ; set-up: method as in PMID 15059976, PMID 23913715; conditions: cited from earlier work
[4] = molecular target: T1, Aβ1–42 (Homo sapiens, UniProt P05067); assay: ThT assay (SensoLyte Thioflavin T β-Amyloid (1–42) Aggregation Kit); format: biochemical; conditions: 100 μM monoamine; for relative ThT fluorescence intensity (Aβ aggregation): 45 μM Aβ1–42, 37 °C; for time at which Aβ aggregation was significantly (p < 0.05) inhibited: 45 μM Aβ1–42, Dunnett's test
T1 construct: Dissolved lyophilized Aβ1–42 (PEPTIDE INSTITUTE, INC., Osaka, Japan); purchased PEPTIDE INSTITUTE, INC., Osaka, Japan
T1 sequence (P05067 672-713): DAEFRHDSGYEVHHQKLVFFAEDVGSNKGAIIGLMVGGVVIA
Procedure: Dissolved lyophilized Aβ1–42 (PEPTIDE INSTITUTE, INC., Osaka, Japan) in 2 mM NaOH produced a peptide concentration of 0.5 mg/mL, which was then subjected to sonication by a bath-type sonicator for 1 min prior to re-lyophilizing the resulting solution. The NaOH-treated Aβ1–42 lyophilizate was dissolved in 500 μL distilled water and sonicated for 1 min. We added 500 μL of 20 mM phosphate buffer and centrifuged the resulting solution for 10 min at 16,000 × g. The supernatant was used as the Aβ1–42 solution. Aggregation of Aβ1–42 was measured using the SensoLyte® Thioflavin T β-Amyloid (1–42) Aggregation Kit (ANASPEC Inc., Fremont, CA.) according to the manufacturer’s protocol. To measure the Aβ1–42 fibril formation in the 96-well black microplates, 10 μL of 2 mM ThT and 5 μL of each monoamine solution (2 mM) were added into each well and mixed with 85 μL Aβ1–42 solution. The final concentration of Aβ1–42 was 45 μM and that of each monoamine concentration was 100 μM. The ThT fluorescence signal was monitored with Ex/Em = 440 nm/484 nm using Varioskan LUX (Thermo Fisher Scientific) at 37 °C at intervals of 5 min and 10 min for 0–125 min and 140–175 min, respectively.
All samples were tested in triplicate, and data were shown as relative fluorescence units by subtracting the fluorescence level of the blank from the actual value.

[5] = tested on: monoamines in cerebral cortex, striatum, hippocampus; assay: Monoamine concentration in brain regions after single dose or 11 days of RA; format: in vivo, mice
Procedure: In order to examine the effect of a single dose of RA, we conducted intragastric administration of RA at 0.1 m mol/kgBW to wild type mice and measured the monoamine concentration in three brain regions (cerebral cortex, striatum, and hippocampus) after 0, 60, and 240 min. […] Therefore, we extended the RA administration period to 11 days.

[6] = tested on: Aβ; set-up: method as in PMID 19893028; conditions: Tg2576 mice, cited from earlier work
[7] = tested on: brain capillary endothelial cell monolayers; assay: BBB permeability in an in vitro BBB model (BBB Kit); format: in vitro ADME; conditions: caffeine positive, Na-F negative control, n = 3
Procedure: We measured the BBB permeability by using the BBB Kit (PharmaCo-Cell, Nagasaki, Japan) according to the manufacturer’s instructions. CA was used as a positive control, and Na-F as a negative control. The concentration of the assay buffer on the brain parenchyma side was measured by HPLC–ECD as per the in vivo RA transferability test. Na-F was measured with Ex/Em = 485/538 nm using a FlexStarion 3-fluorescence-plate reader (Molecular Devices, CA, USA). The permeability coefficient (Pe: × 10^−6 cm/sec) was calculated as follows using the concentration of the test substance added to the luminal side ([C]Luminal), the concentration of test compound that passed through to the […] every 20 minutes ([C]Abluminal), and the amount on the brain parenchyma side (VAbluminal). Volume(µL)=([C]Abluminal×VAbluminal)/[C]Luminal The amount of permeation was plotted every 20 min and the value of the slope of the formula of the quantity transmitted for each time was used as the permeation index (PS). […] 1/PSendothelial=1/PStotal−1/PSmembrane Pe was calculated by dividing PSendothelial by the insert surface area (A). […]

[8] = Side effects in the animal study; format: in vivo, mice; conditions: RA-fed animals
[9] = tested on: DA in brain sections; assay: DA imaging by IMS (MALDI-TOFMS); format: in vivo, C57BL/6 J mice; conditions: 0.5% RA diet for 10 days
Procedure: Because it has been reported that isoflurane anesthesia increases the release of DA in rat striatum, we adopted decapitation after cervical dislocation without anesthesia to euthanize the mice after 10 days of breeding (C and RA group). The left hemisphere of the brain of each mouse was collected, then sagittal sections 8 μm thick were prepared using a cryostat (CM-3050 S; LEICA, Germany) at −25 °C and mounted on a glass slide coated with indium tin oxide. Sections were sprayed with DPP and incubated at 40 °C for 30 min, and then sprayed with 2,5-dihydroxybenzoic acid to improve ionization efficiency. The surface of the sections was ionized by irradiation with laser light at 200 μm intervals using an Ultrafle Xtreme (matrix-assisted laser desorption/ionization time-of-flight mass spectrometer) (MALDI-TOFMS) (Bruker Daltonik GmbH, Bremen, Germany). The peak of DPP-derivatized DA (m/z: 368.2), which constitutes a complex of the target substance (DA) and DPP, was measured two-dimensionally. Only DA that could be derivatized was measured.

[10] = In vivo RA transferability test (HPLC-ECD of plasma and brain); set-up: species or system C57BL/6 J mice; conditions: C57BL/6 J, mouse, plasma, oral, 0.5 % (fed), mice fed 0.5% RA for 7 weeks, mean ± S.E. (n = 5)
Procedure: The blood and whole brain were collected under isoflurane anesthesia after 7 weeks of breeding (C and RA group). The blood samples were centrifuged at 1,800 × g at 4 °C for 10 min to obtain EDTA plasma.
Phosphate-buffered saline (PBS) (1 mL/0.1 g of brain tissue) was added to the brain tissue sample and homogenized with a Polytron homogenizer. After that, the samples were centrifuged at 4,000 × g at 4 °C for 40 min to obtain the brain extract supernatant. The plasma and brain extract were processed as follows. In the β-glucuronidase-treated group, 50 μL of plasma or brain extract was suspended in 50 μL of 200 U β-glucuronidase and 0.1 M sodium acetate buffer (pH 5.0). Then the samples were incubated at 37 °C for 45 min. In the non-treated group, 50 μL of plasma or brain extract were suspended in 50 μL of 0.1 M sodium acetate buffer and incubated as above. After incubation, 200 μL of 0.83 M methyl acetate buffer was added to the samples of both groups, the protein was precipitated by vortex stirring for 1 minute, treated with sonication for 1 minute, and centrifuged at 8,500 × g at 4 °C for 5 min. The supernatants were recovered and passed through 0.45 μm filters, and the concentrations of RA and metabolites in the filtrates were measured using an Ultimate 3000 HPLC-ECD (Thermo Fisher scientific, Massachusetts, US). The conditions of chromatography were the same as the previous report.

[11] = tested on: mRNA of DA-metabolizing enzymes, Tieg2, Tgf-β1; assay: Relative mRNA measurement in cerebral cortex, SN and VTA by qRT-PCR; format: in vivo, C57BL/6 J mice
Excerpt: The mice were divided into two groups, C and RA, as mentioned above, and fed with the appropriate diet for 11 days. We collected SN and VTA from the brain according to methods previously described. In brief, we collected the whole brain, washed it with saline, and obtained 1 mm thick coronal sections using a brain slicer BS-Z 2000C (Muromachi Kikai Co., Ltd., Tokyo, Japan). Referring to the Allen Brain Atlas[55], we acquired the SN and VTA from the relevant sections.
Total RNA was extracted from SN, and VTA using TRIzol (Invitrogen) according to the manufacturer’s manual. After checking the quality of total RNA, we synthesized cDNA using PrimeScript^TM RT Master Mix (Perfect Real Time) (TaKaRa Bio, Shiga, Japan). The primer sequences and conditions for our qRT–PCR are given in Suppl. Table S1 and Supplemental Methods. Results are expressed as mean of fold change compared with control condition (SE as error bars, n = 5, 6). All samples were tested in triplicate and the data were normalized to GAPDH (cerebral cortex) or β-actin (SN and VTA).

[12] = tested on: brain monoamines; assay: Monoamine concentration in the whole brain of mice fed RA for 7 weeks (HPLC-ECD); format: in vivo, C57BL/6 J mice; conditions: 0.5% RA diet for 7 weeks vs control
Procedure: The whole brain was collected under isoflurane anesthesia after 7 weeks of breeding (C and RA group). Buffer (2.0 mM NaHSO3, 20 μM EDTA • 2Na, 0.10 M HClO4; 1 mL/0.1 g of brain tissue) was added to the brain sample, the mixture was then homogenized with a Polytron and centrifuged at 12,000 × g at 4 °C for 5 min to obtain a brain extract supernatant. The supernatants were recovered, passed through 0.45 μm filters, and the concentration of monoamines in the filtrates was measured using HPLC-ECD. The conditions of chromatography were given in Supplemental Methods.

[13] = tested on: brain serotonin concentration; set-up: method as in PMID 23009399; conditions: via inhibition of Maoa; cited from earlier work
[14] = tested on: striatum DA and NE; set-up: method as in PMID 25756794; conditions: fed for 20 days; with elevated Th expression in SN; cited from earlier work
[15] = 0.5% RA diet 11 days vs controls, P < 0.05
[16] = RA diet 11 days, normalized to β-actin

## COc1cc(/C=C/C(=O)CC(=O)/C=C/c2ccc(O)c(OC)c2)ccc1O [Cur, curcumin, reference compound]
[1]
  Aβ aggregation in vitro: significantly inhibited
[2]
  intestinal permeability: approximately 0.1%

## N[C@@H](Cc1ccc(O)c(O)c1)C(=O)O [L-DOPA, levodopa]
[3]
  Aβ aggregation: inhibit
[4]
  relative ThT fluorescence intensity (Aβ aggregation): lower than that in their absence
  time at which Aβ aggregation was significantly (p < 0.05) inhibited: 20 to 160 min

## O=C(/C=C/c1ccc(O)c(O)c1)O[C@H](Cc1ccc(O)c(O)c1)C(=O)O [RA, rosmarinic acid]
[5]; [15]
  DOPAC level in cerebral cortex: increased significantly
  L-DOPA level in cerebral cortex: increased significantly
  NE level in cerebral cortex: increased significantly
[5]; 0.5% RA diet 11 days vs controls, P = 0.068
  DA level in cerebral cortex: somewhat increased
[5]; RA diet 11 days, data not shown
  monoamine concentration in striatum and hippocampus: not significantly changed
[5]; single intragastric dose 0.1 m mol/kgBW, 0, 60, 240 min, data not shown
  monoamine concentration in cerebral cortex, striatum and hippocampus: no significant differences
[1]
  Aβ aggregation in vitro: significantly inhibited
[6]; RA diet for 10 months
  Aβ deposition in the brain (immunohistochemistry): significantly decreased
[6]
  Aβ aggregation inhibitory activity in the brain, among five polyphenols: highest
[7]
  transendothelial permeability (Pe): lowest value
[8]
  side effects including nausea and vomiting: not observed
[9]
  DPP-derivatized DA signals in cerebral cortex and striatum: more strongly than in control group
[2]
  intestinal permeability: ~1%
[2]; previous in vitro study
  intestinal permeability, of intake volume: < 1%
[10]; β-glucuronidase not reacted
  concentration at 7 weeks: 590 ± 220 nM
[10]; β-glucuronidase reacted
  concentration at 7 weeks: 750 ± 150 nM
[11]; RA diet 11 days
  Tgf-β1 gene expression in SN and VTA: significantly downregulated
[11]; RA diet 11 days vs controls
  Tieg2 gene expression in SN and VTA: significantly decreased
[11]; RA diet 11 days, P = 0.13
  Th mRNA level in cerebral cortex: somewhat increased
[11]; RA diet 11 days, normalized to GAPDH
  mRNA levels of DA-metabolizing enzymes in cerebral cortex: no significant difference
[11]; [16]
  Comt mRNA expression in SN: significantly downregulated
  Maob mRNA expression in SN: significantly downregulated
  Maob mRNA expression in VTA: significantly downregulated
[12]
  DA concentration in whole brain: changed but not significantly
  DOPAC concentration in whole brain: significantly increased
  L-DOPA concentration in whole brain: significantly increased
  NE concentration in whole brain: changed but not significantly

## NCCc1ccc(O)c(O)c1 [DA, dopamine]
[3]
  Aβ aggregation: inhibit
[4]
  relative ThT fluorescence intensity (Aβ aggregation): lower than that in their absence
  time at which Aβ aggregation was significantly (p < 0.05) inhibited: 15 to 160 min

## NC[C@H](O)c1ccc(O)c(O)c1 [NE, norepinephrine]
[4]
  relative ThT fluorescence intensity (Aβ aggregation): lower than that in their absence
  time at which Aβ aggregation was significantly (p < 0.05) inhibited: 20 to 160 min

## O=c1c(O)c(-c2ccc(O)c(O)c2)oc2cc(O)cc(O)c12 [quercetin]
[13]
  brain serotonin concentration: suppressed a decrease

## O=C(O)Cc1ccc(O)c(O)c1 [DOPAC, 3,4-dihydroxyphenylacetic acid]
[4]
  relative ThT fluorescence intensity (Aβ aggregation): lower than that in their absence

## COc1cc(/C=C/C(=O)O)ccc1O [FA, ferulic acid]
[1]
  Aβ aggregation in vitro: significantly inhibited

## Cn1cnc2c1c(=O)[nH]c(=O)n2C [theobromine]
[14]
  DA and NE concentrations in the striatum: significant increases
